In the supplement of paper PMC10307832:

How the values were obtained:
Experiment in all cases: relative viability (nuclei count vs DMSO), 5 days (fraction); higher = more cells survive
[1] = compound: COc1cccc2c1C(=O)c1c(O)c3c(c(O)c1C2=O)C[C@@](O)(C(=O)CO)C[C@@H]3O[C@H]1C[C@H](N)[C@H](O)[C@H](C)O1 [Doxorubicin] + COc1cccc2cc(-c3nc([C@H]4CC[C@H](C(=O)O)CC4)n4ncnc(N)c34)[nH]c12 [OSI-027] (partner 0.5 µM)
How it was run: (§1)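 Relative viability equals treated-well nuclei counts divided by vehicle-well nuclei counts. Counts came from 4× images of lung cancer cell lines grown in 1536-well plates for 5 days after pin-tool dosing on the day after seeding. Dosing used one drug alone or a fixed anchor-drug dose plus five library-drug doses (not always all listed) in √10 steps, and values are medians of duplicate plates.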

[2] = compound: COC1=C(C=C(C=C1)C2=CC3=NC=CN3C(=N2)NC4=C(C=CC=N4)C(=O)N)OC [BAY61-3606] + CCNC(=O)c1noc(-c2cc(C(C)C)c(O)cc2O)c1-c1ccc(CN2CCOCC2)cc1 [Luminespib] (partner 0.01 µM)
How it was run: as §1

[3] = compound: COC1=C(C=C(C=C1)C2=CC3=NC=CN3C(=N2)NC4=C(C=CC=N4)C(=O)N)OC [BAY61-3606] + CS(=O)(=O)N1CCN(Cc2cc3nc(-c4cccc5[nH]ncc45)nc(N4CCOCC4)c3s2)CC1 [Pictilisib] (partner 1 µM)
How it was run: as §1

[4] = compound: COc1cccc2c1C(=O)c1c(O)c3c(c(O)c1C2=O)C[C@@](O)(C(=O)CO)C[C@@H]3O[C@H]1C[C@H](N)[C@H](O)[C@H](C)O1 [Doxorubicin] + NC(=O)Nc1cc(-c2cccc(F)c2)sc1C(=O)N[C@H]1CCCNC1 [AZD7762] (partner 0.2 µM)
How it was run: as §1

Row | Cell Line | relative viability ([1]; first compound 0.001 µM) | relative viability ([1]; first compound 0.003162 µM) | relative viability ([1]; first compound 0.01 µM) | relative viability ([1]; first compound 0.03162 µM) | relative viability ([1]; first compound 0.1 µM) | relative viability ([2]; first compound 0.02 µM) | relative viability ([2]; first compound 0.06325 µM) | relative viability ([2]; first compound 0.2 µM) | relative viability ([2]; first compound 0.6325 µM) | relative viability ([2]; first compound 2 µM) | relative viability ([3]; first compound 0.02 µM) | relative viability ([3]; first compound 0.2 µM) | relative viability ([3]; first compound 0.6325 µM) | relative viability ([3]; first compound 2 µM) | relative viability ([4]; first compound 0.001 µM) | relative viability ([4]; first compound 0.003162 µM) | relative viability ([4]; first compound 0.01 µM) | relative viability ([4]; first compound 0.03162 µM) | relative viability ([4]; first compound 0.1 µM) | relative viability ([3]; first compound 0.06325 µM)
1 | LCLC-97TM1 | 0.516 | 0.684 | 0.558 | 0.573 | 0.529 | 0.793 | 0.875 | 0.879 | 0.794 | 0.765 | 0.272 | 0.28 | 0.178 | 0.179 | 0.235 | 0.218 | 0.303 | 0.244 | 0.211 | –
2 | LCLC-103H | 0.482 | 0.436 | 0.516 | 0.405 | 0.454 | 0.989 | 1.06 | 0.969 | 1.06 | 0.737 | 0.646 | 0.654 | 0.542 | 0.646 | 0.781 | 0.815 | 0.75 | 0.767 | 0.826 | 0.737
3 | LK-2 | 0.175 | 0.191 | 0.244 | 0.187 | 0.199 | 0.168 | 0.163 | 0.185 | 0.185 | 0.208 | 0.594 | 0.614 | 0.758 | 0.532 | 0.354 | 0.578 | 0.274 | 0.341 | 0.251 | 0.423
4 | LOU-NH91 | 0.569 | 0.748 | 0.803 | 0.681 | 0.69 | 0.375 | 0.294 | 0.396 | 0.379 | 0.317 | 0.566 | 0.568 | 0.505 | 0.472 | – | 0.79 | 0.77 | 0.722 | 0.429 | 0.544
5 | LU99A | 0.353 | 0.338 | 0.302 | 0.273 | 0.315 | 0.347 | 0.256 | 0.407 | 0.248 | 0.209 | 0.343 | 0.34 | 0.329 | 0.278 | 0.353 | 0.394 | 0.429 | 0.317 | 0.324 | 0.352
6 | LXF-289 | 0.613 | 0.832 | 0.794 | 0.834 | 0.819 | 0.772 | 0.578 | 0.648 | 0.551 | 0.561 | 0.846 | 0.782 | 0.805 | 0.84 | 1.04 | 1.11 | 1.09 | 1.2 | 1.06 | 0.83
7 | NCI-H23 | – | 0.664 | 0.694 | 0.537 | 0.506 | 0.212 | 0.213 | 0.214 | 0.232 | 0.207 | 0.743 | 0.49 | 0.522 | 0.382 | 0.142 | 0.249 | 0.229 | 0.204 | 0.208 | 0.522
8 | NCI-H322M | 0.414 | 0.493 | 0.566 | 0.556 | 0.378 | 0.879 | 0.806 | 0.818 | 0.819 | 0.742 | 0.506 | 0.516 | 0.523 | 0.482 | 0.514 | 0.546 | 0.6 | 0.502 | 0.429 | 0.529
9 | NCI-H358 | 0.853 | 0.642 | 0.417 | 0.121 | 0.0934 | 0.428 | 0.249 | 0.322 | 0.289 | 0.205 | 0.385 | 0.333 | 0.321 | 0.167 | 0.548 | 0.542 | 0.597 | 0.367 | 0.258 | 0.327
10 | NCI-H441 | – | 0.524 | 0.445 | 0.261 | 0.279 | 0.258 | 0.31 | 0.369 | 0.335 | 0.302 | 0.561 | 0.493 | 0.475 | 0.282 | 1.05 | 1.07 | 0.954 | 0.853 | 0.912 | 0.529
11 | NCI-H460 | 0.614 | 0.41 | 0.482 | 0.0685 | 0.0255 | 0.0381 | 0.0387 | 0.0289 | 0.0296 | 0.0322 | 0.433 | 0.319 | 0.35 | 0.377 | 0.659 | 0.635 | 0.561 | 0.177 | 0.0853 | 0.353
12 | NCI-H596 | 0.578 | 0.801 | 0.799 | 0.647 | 0.721 | 0.941 | 1.14 | 0.929 | 1.3 | 0.62 | 0.41 | 0.386 | 0.416 | 0.408 | 1.13 | 1.12 | 0.987 | 0.986 | 0.959 | 0.387
13 | NCI-H647 | 0.695 | 0.805 | 0.771 | 0.498 | 0.215 | 0.205 | 0.16 | 0.21 | 0.221 | 0.0962 | 0.622 | 0.435 | 0.404 | 0.365 | 0.352 | 0.417 | 0.466 | 0.19 | 0.0766 | 0.297
14 | NCI-H650 | 0.574 | 0.544 | 0.59 | 0.522 | 0.495 | 0.925 | 0.751 | 0.766 | 0.927 | 0.652 | 0.984 | 0.798 | 1.01 | 0.596 | 0.949 | 0.921 | 0.948 | 0.89 | 0.718 | 0.722
15 | NCI-H727 | 0.483 | 0.713 | 0.531 | 0.631 | 0.556 | 0.334 | 0.364 | 0.266 | 0.328 | 0.331 | 0.443 | 0.392 | 0.386 | 0.267 | 0.675 | 0.575 | – | 0.497 | 0.573 | 0.4
